According to patent US10975068B2, “6-aminopyridin-3-yl thiazoles as modulators of RORγT” (Janssen Pharmaceutica NV, priority 2016, dated 2021):

Columns and labels:
[1] = target: human RORγt ligand binding domain (RORγt LBD) (Homo sapiens (Human), UniProt P51449); experiment: RORγt ThermoFluor® assay (thermal shift binding); conditions: read-out: ThermoFluor® Assay, Kd
Procedure, shortened: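 His-tagged human RORγt LBD (0.065 mg/mL) with 60 μM 1,8-ANS in 100 mM Hepes pH 7.0, 10 mM NaCl, 2.5 mM GSH, 0.002% Tween-20 was heated at 1 °C/min.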

full-length human RORγt [2] = target: T1, full-length human RORγt (Homo sapiens (Human), UniProt P51449); experiment: RORγt (full-length human) reporter assay, Conditions A; format: cell-based; conditions: Conditions A; for IC50: read-out: RORγt (FL) Reporter Assay A, IC50; for inhibition at 6 µM: read-out: RORγt (FL) Reporter Assay A, % inhibition @ 6 μM; for RORγt (FL) Reporter Assay A, % inhibition (value marked **): marked **: footnote not shown
Description: RORγt (Full-Length Human) Reporter Assay:
Cells used in this assay were transiently co-transfected with three different plasmids, one expressing the GAL4-DNA binding domain (DBD)-RORγt fusion protein under control of a CMV promoter (NH2-Gal4-DBD:RORC-COOH in pCMV-BD, Stratagene #211342), and two reporter plasmids—the firefly luciferase reporter under control of a GAL4 promoter (pFR-Luc 2×GAL4) and Renilla luciferase reporter under control of CMV promoter (pRL-CMV, Promega # E2261). The full-length coding sequence was used for human RORγt, i.e., nucleotides 142-1635 of human RORγt, transcript variant 2, NCBI Accession: NM_001001523.1 (SEQ ID NO:1). HEK293T cells were plated at 35000 per well in 96-well plate in medium of MEM with 8.6% FBS. After 18-22 hours incubation, the transfection was carried out by using a PEI solution with 170.5 ng total DNA/well (50 ng pCMV-BD-ROR plus 20 ng of pFR-Luc reporter and 0.5 ng of pRL-CMV reporter plus 100 ng Carrier DNA (Clontech #630440) for each well). 4-6 hours after transfection, cells were treated with compounds for overnight in the medium with final concentration of FBS 1.1% and DMSO 0.1%. After overnight (16 to 20 hours) incubation, media were removed and cells were lysed with 20 μL 1× Passive Lysis Buffer (Promega) for 10-15 minutes. Luminescence was measured using a BMG LUMIstar OPTIMA plate reader, after addition of 75 μL/well firefly luciferase buffer, followed by 75 μL/well Renilla luciferase buffer. To calculate the effect of compounds on RORγt activity, firefly values were normalized against values of DMSO only and values of reference compound at saturating concentration, then further normalized against Renilla signals. IC50s were generated by plotting final Renilla normalized data against compound concentration and percent inhibition was calculated against DMSO control.

full-length human RORγt [3] = target: T1, full-length human RORγt; experiment: RORγt (full-length human) reporter assay, Conditions B or C; format: cell-based
Procedure, shortened: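 HEK293T cells transiently co-transfected with GAL4-DBD–full-length human RORγt (nt 142-1635, NM_001001523.1) plus GAL4-firefly and CMV-Renilla luciferase reporters; compounds added 4-6 h post-transfection for 16-20 h in 1.3% FBS, 0.1% DMSO. Firefly signal normalized to DMSO and saturating reference compound, then to Renilla; IC50 from concentration plots.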

Chain of human RORγt ligand binding domain (RORγt LBD) (P51449 other isoform, or with tags, fused parts or gaps): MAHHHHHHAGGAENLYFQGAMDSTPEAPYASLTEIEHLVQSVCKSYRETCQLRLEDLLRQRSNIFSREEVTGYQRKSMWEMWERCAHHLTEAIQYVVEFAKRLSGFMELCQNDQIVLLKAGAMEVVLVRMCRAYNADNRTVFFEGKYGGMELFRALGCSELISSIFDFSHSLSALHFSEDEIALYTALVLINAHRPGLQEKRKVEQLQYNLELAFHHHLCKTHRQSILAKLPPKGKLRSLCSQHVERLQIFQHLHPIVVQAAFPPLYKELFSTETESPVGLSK
T1 sequence (P51449 other isoform, or with tags, fused parts or gaps): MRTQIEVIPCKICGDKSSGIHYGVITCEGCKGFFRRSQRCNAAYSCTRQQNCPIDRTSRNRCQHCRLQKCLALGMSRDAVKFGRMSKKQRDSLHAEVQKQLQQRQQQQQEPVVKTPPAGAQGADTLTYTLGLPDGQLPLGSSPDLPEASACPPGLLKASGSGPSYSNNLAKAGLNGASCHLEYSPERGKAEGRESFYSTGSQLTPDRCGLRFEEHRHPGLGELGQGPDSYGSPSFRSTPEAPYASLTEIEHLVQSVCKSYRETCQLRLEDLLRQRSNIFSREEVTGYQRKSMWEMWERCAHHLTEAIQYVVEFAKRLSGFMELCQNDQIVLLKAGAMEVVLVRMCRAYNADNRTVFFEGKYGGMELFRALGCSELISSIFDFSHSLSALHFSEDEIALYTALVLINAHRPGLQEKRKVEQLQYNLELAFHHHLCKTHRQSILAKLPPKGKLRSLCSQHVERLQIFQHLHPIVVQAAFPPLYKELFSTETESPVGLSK

Kd [1] | IC50 (full-length human RORγt [2]) | inhibition at 6 µM (full-length human RORγt [2]) | RORγt (FL) Reporter Assay A, % inhibition (value marked **) (full-length human RORγt [2]) | inhibition at 3 µM (full-length human RORγt [3]; at 3 μM compound concentration, read-out: RORγt (FL) Reporter Assay B or C, % inhibition) | IC50 (full-length human RORγt [3]; read-out: RORγt (FL) Reporter Assay B or C, IC50) | SMILES
170 nM | 630 nM | 85% | – | – | – | CCOc1cc(NC2CCCCC2)ncc1-c1sc(C(=O)NCC(C)(C)O)nc1C(=O)N1CCC(F)CC1 [Example 69, 5-(6-(Cyclohexylamino)-4-ethoxypyridin-3-yl)-4-(4-fluoropiperidine-1-carbonyl)-N-(2-hydroxy-2-methylpropyl)thiazole-2-carboxamide]
370 nM | 1100 nM | 70% | – | – | – | CC(C)(O)CNC(=O)c1nc(C(=O)N2CCC(F)CC2)c(-c2cnc(NC3CCCCC3)c(C#N)c2C(F)(F)F)s1 [Example 68, 5-(5-Cyano-6-(cyclohexylamino)-4-(trifluoromethyl)pyridin-3-yl)-4-(4-fluoropiperidine-1-carbonyl)-N-(2-hydroxy-2-methylpropyl)thiazole-2-carboxamide]
41 nM | 150 nM | 85% | – | – | – | Cc1c(-c2sc(C(=O)NCC(C)(C)O)nc2C(=O)N2CCC(F)CC2)cnc(NC2CCCCC2)c1F [Example 66, 5-(6-(Cyclohexylamino)-5-fluoro-4-methylpyridin-3-yl)-4-(4-fluoropiperidine-1-carbonyl)-N-(2-hydroxy-2-methylpropyl)thiazole-2-carboxamide]
33 nM | 76 nM | 105% | – | – | – | CC(C)(O)CNC(=O)c1nc(C(=O)N2CCC(F)CC2)c(-c2cnc(NC3CCCCC3)cc2C(F)F)s1 [Example 14, 5-(6-(Cyclohexylamino)-4-(difluoromethyl)pyridin-3-yl)-4-(4-fluoropiperidine-1-carbonyl)-N-(2-hydroxy-2-methylpropyl)thiazole-2-carboxamide]
52 nM | 400 nM | 98% | – | – | – | Cc1cc(NC2CCCCC2)ncc1-c1sc(C(=O)NCC(C)(C)O)nc1C(=O)N1CCC(F)CC1 [Example 67, 5-(6-(Cyclohexylamino)-4-methylpyridin-3-yl)-4-(4-fluoropiperidine-1-carbonyl)-N-(2-hydroxy-2-methylpropyl)thiazole-2-carboxamide]
– | 250 nM | 96% | – | – | – | COc1cc(NC2CCCCC2)ncc1-c1sc(C(=O)NCC(C)(C)O)nc1C(=O)N1CCC(F)CC1 [Example 63, 5-(6-(Cyclohexylamino)-4-methoxypyridin-3-yl)-4-(4-fluoropiperidine-1-carbonyl)-N-(2-hydroxy-2-methylpropyl)thiazole-2-carboxamide]
– | 700 nM | 88% | – | – | – | COc1cc(-c2sc(C(=O)NCC(C)(C)O)nc2C(=O)N2CCC(F)CC2)cnc1NC1CCCCC1 [Example 59, 5-(6-(Cyclohexylamino)-5-methoxypyridin-3-yl)-4-(4-fluoropiperidine-1-carbonyl)-N-(2-hydroxy-2-methylpropyl)thiazole-2-carboxamide]
– | 210 nM | 103% | – | – | – | CC(C)c1cc(NC2CCCCC2)ncc1-c1sc(C(=O)NCC(C)(C)O)nc1C(=O)N1CCC(F)CC1 [Example 65, 5-(6-(Cyclohexylamino)-4-isopropylpyridin-3-yl)-4-(4-fluoropiperidine-1-carbonyl)-N-(2-hydroxy-2-methylpropyl)thiazole-2-carboxamide]

Continued, compound first:

SMILES | Kd [1] | IC50 (full-length human RORγt [2]) | inhibition at 6 µM (full-length human RORγt [2]) | RORγt (FL) Reporter Assay A, % inhibition (value marked **) (full-length human RORγt [2]) | inhibition at 3 µM (full-length human RORγt [3]; at 3 μM compound concentration, read-out: RORγt (FL) Reporter Assay B or C, % inhibition) | IC50 (full-length human RORγt [3]; read-out: RORγt (FL) Reporter Assay B or C, IC50)
C[C@H]1CCCCN1C(=O)c1nc(C(=O)NCC(C)(C)O)sc1-c1cnc(NC2CCCCC2)c(C(F)(F)F)c1 [Example 4, (S)-5-(6-(Cyclohexylamino)-5-(trifluoromethyl)pyridin-3-yl)-N-(2-hydroxy-2-methylpropyl)-4-(2-methylpiperidine-1-carbonyl)thiazole-2-carboxamide] | 0.98 nM | 9 nM | 106% | – | – | –
CC(C)(O)CNC(=O)c1nc(C(=O)N2CCC(F)CC2)c(-c2cnc(NC3CCC(F)(F)C3)cc2C(F)(F)F)s1 (stereo not shown) [Example 20, 5-(6-((3,3-Difluorocyclopentyl)amino)-4-(trifluoromethyl)pyridin-3-yl)-4-(4-fluoropiperidine-1-carbonyl)-N-(2-hydroxy-2-methylpropyl)thiazole-2-carboxamide] | 52 nM | 200 nM | 110% | – | – | –
C[C@H]1CC(F)(F)CN1C(=O)c1nc(C(=O)NCC(C)(C)O)sc1-c1cnc(NC2CCCCC2)cc1C(F)(F)F [Example 11, (S)-5-(6-(Cyclohexylamino)-4-(trifluoromethyl)pyridin-3-yl)-4-(4,4-difluoro-2-methylpyrrolidine-1-carbonyl)-N-(2-hydroxy-2-methylpropyl)thiazole-2-carboxamide] | 2.6 nM | 17 nM | – | 107** % | – | –
C[C@H]1CCCCN1C(=O)c1nc(C(=O)NC2CCS(=O)(=O)CC2)sc1-c1cnc(NC2CCCCC2)cc1C(F)(F)F [Example 17, (S)-5-(6-(Cyclohexylamino)-4-(trifluoromethyl)pyridin-3-yl)-N-(1,1-dioxidotetrahydro-2H-thiopyran-4-yl)-4-(2-methylpiperidine-1-carbonyl)thiazole-2-carboxamide] | 0.15 nM | 9 nM | – | 95** % | – | –
CC(C)(O)CNC(=O)c1nc(C(=O)N2CCC(F)CC2)c(-c2cnc(NCCC(F)(F)F)c(C(F)(F)F)c2)s1 [Example 7, 4-(4-Fluoropiperidine-1-carbonyl)-N-(2-hydroxy-2-methylpropyl)-5-(5-(trifluoromethyl)-6-((3,3,3-trifluoropropyl)amino)pyridin-3-yl)thiazole-2-carboxamide] | 230 nM | 620 nM | 80% | – | – | –
CC(C)(O)CNC(=O)c1nc(C(=O)N2CCC(F)CC2)c(-c2cnc(NC3CC(F)(F)C3)cc2C(F)(F)F)s1 [Example 21, 5-(6-((3,3-Difluorocyclobutyl)amino)-4-(trifluoromethyl)pyridin-3-yl)-4-(4-fluoropiperidine-1-carbonyl)-N-(2-hydroxy-2-methylpropyl)thiazole-2-carboxamide] | – | – | 100% | – | – | –
CC(C)(O)CNC(=O)c1nc(C(=O)N2CCC(F)CC2)c(-c2cnc(NC3CC(F)(F)C3)c(C(F)(F)F)c2)s1 [Example 16, 5-(6-((3,3-Difluorocyclobutyl)amino)-5-(trifluoromethyl)pyridin-3-yl)-4-(4-fluoropiperidine-1-carbonyl)-N-(2-hydroxy-2-methylpropyl)thiazole-2-carboxamide] | 130 nM | 470 nM | 105% | – | – | –
C[C@H]1CCCCN1C(=O)c1nc(C(=O)NCC(C)(C)O)sc1-c1cnc(NC2CCCCC2)cc1C(F)(F)F [Example 5, (S)-5-(6-(Cyclohexylamino)-4-(trifluoromethyl)pyridin-3-yl)-N-(2-hydroxy-2-methylpropyl)-4-(2-methylpiperidine-1-carbonyl)thiazole-2-carboxamide] | 0.25 nM | 9 nM | 104% | – | – | –
C[C@H](Nc1cc(C(F)F)c(-c2sc(C(=O)N[C@H]3CC[C@@H]3O)nc2C(=O)N2CCC[C@@H]2C)cn1)C(F)(F)F (relative stereo) [Example 388, 5-(4-(Difluoromethyl)-6-(((S)-1,1,1-trifluoropropan-2-yl)amino)pyridin-3-yl)-N-((1S*,2S*)-2-hydroxycyclobutyl)-4-((S)-2-methylpyrrolidine-1-carbonyl)thiazole-2-carboxamide] | 8.6 nM | – | – | – | 103% | 85 nM
